Measurements as given in patent US8841233B2, “Herbicidal compositions comprising 4-amino-3-chloro-5-fluoro-6-(4-chloro-2-fluoro-3-methoxyphenyl) pyridine-2-carboxylic acid or a derivative thereof and 4-hydroxyphenyl-pyruvate dioxygenase (HPPD) inhibitors” (Dow Agrosciences LLC, priority 2012, dated 2014).

System: SCPJU
Test: Post-emergence foliar-applied weed control, greenhouse (Example I)
Assay type: in vivo, Schoenoplectus juncoides (Roxb.) Palla
From the text: Evaluation of Post-emergence Foliar-Applied Herbicidal Mixtures for Weed Control in Direct Seeded Rice
Seeds or nutlets of the desired test plant species were planted in a soil matrix prepared by mixing a loam or sandy loam soil (e.g., 28.6 percent silt, 18.8 percent clay, and 52.6 percent sand, with a pH of about 5.8 and an organic matter content of about 1.8 percent) and calcareous grit in an 80 to 20 ratio. The soil matrix was contained in plastic pots with a volume of 1 quart and a surface area of 83.6 square centimeters (cm^2). When required to ensure good germination and healthy plants, a fungicide treatment and/or other chemical or physical treatment was applied. The plants were grown for 8-22 days in a greenhouse with an approximate 14 h photoperiod which was maintained at about 29° C. during the day and 26° C. during the night. Nutrients (Peters Excel® 15-5-15 5-Ca 2-Mg and iron chelate) were applied in the irrigation solution as needed and water was added on a regular basis. Supplemental lighting was provided with overhead metal halide 1000-Watt lamps as necessary. The plants were employed for testing when they reached the first through fourth true leaf stage.
Treatments consisted of the acid or esters of 4-amino-3-chloro-5-fluoro-6-(4-chloro-2-fluoro-3-methoxy-phenyl)pyridine-2-carboxylic acid (Compound A), each formulated as an SC (suspension concentrate), and various herbicidal components alone and in combination. Forms of Compound A were applied on an acid equivalent basis.
Other herbicidal components were applied on an active ingredient basis and included 4-hydroxyphenyl pyruvate dioxygenase (HPPD)-inhibiting herbicides mesotrione formulated as Callisto®, sulcotrione formulated as Mikado®, pyrazolynate formulated as Sunbird® 10% GR, and benzobicyclon formulated as Benzobicyclon 3.5%.
Treatment requirements were calculated based upon the rates being tested, the concentration of active ingredient or acid equivalent in the formulation, and a 12 mL application volume at a rate of 187 L/ha.
For treatments comprised of formulated compounds, measured amounts of compounds were placed individually in 25 mL glass vials and diluted in a volume of 1.25% (v/v) Agri-Dex® crop oil concentrated to obtain 12× stock solutions. […] Application solutions were prepared by adding an appropriate amount of each stock solution (e.g., 1 mL) and diluted to the appropriate final concentrations with the addition of 10 mL of an aqueous mixture of 1.25% (v/v) crop oil concentrate so that the final spray solutions contained 1.25+/−0.05% (v/v) crop oil concentrate.
For treatments comprised of formulated and technical compounds, weighed amounts of the technical materials were placed individually in 25 mL glass vials and dissolved in a volume of 97:3 v/v acetone/DMSO to obtain 12× stock solutions, and measured amounts of the formulated compounds were placed individually in 25 mL glass vials and diluted in a volume of 1.5% (v/v) crop oil concentrate or water to obtain 12× stock solutions. […] Application solutions were prepared by adding an appropriate amount of each stock solution (e.g., 1 mL) and diluted to the appropriate final concentrations with the addition of an appropriate amount of an aqueous mixture of 1.5% (v/v) crop oil concentrate so that the final spray solutions contained 1.25% (v/v) crop oil concentrate. As required, additional water and/or 97:3 v/v acetone/DMSO was added to individual application solutions so that the final acetone and DMSO concentrations of the application solutions being compared were 8.1% and 0.25%, respectively.
All stock solutions and applications solutions were visually inspected for compound compatibility prior to application. Spray solutions were applied to the plant material with an overhead Mandel track sprayer equipped with a 8002E nozzles calibrated to deliver 187 L/ha over an application area of 0.503 m^2 at a spray height of 18 to 20 inches (46 to 50 cm) above average plant canopy height. […]

Compound	Visual Weed Control (%) - 20 DAA SCPJU Obs (4.38 gae/ha) [%]	Visual Weed Control (%) - 20 DAA SCPJU Obs (8.75 gae/ha) [%]	Visual Weed Control (%) - 22 DAA SCPJU Obs (5.3 gae/ha) [%]	Visual Weed Control (%) - 22 DAA SCPJU Obs (10.6 gae/ha) [%]
COc1c(Cl)ccc(-c2nc(C(=O)OCc3ccccc3)c(Cl)c(N)c2F)c1F [Compound A Benzyl Ester, benzyl ester of 4-amino-3-chloro-5-fluoro-6-(4-chloro-2-fluoro-3-methoxy-phenyl)pyridine-2-carboxylic acid]	30	60	–	–
COc1c(Cl)ccc(-c2nc(C(=O)O)c(Cl)c(N)c2F)c1F [Compound A Acid, 4-amino-3-chloro-6-(4-chloro-2-fluoro-3-methoxyphenyl)-5-fluoropyridine-2-carboxylic acid]	–	–	60	75
